# Laboratory results from patent publication US8741834B2, “Dipeptoid prodrugs and the use thereof” (Bayer Intellectual Property GmbH, priority 2008, dated 2014).
# Where a name gives a salt, the structure may show the parent alone.
# Experiments:
# [1] = Determination of the solubility in 5% strength aqueous dextrose solution; assay type: physicochemical; settings: saline or isotonic, thermodynamic from solid, room temperature
# Protocol: The test substance is suspended in 5% strength aqueous dextrose solution. This suspension is shaken at room temperature for 24 h. After ultracentrifugation at 224 000 g for 30 min, the supernatant is diluted with DMSO and analysed by HPLC. A two-point calibration plot of the test compound in DMSO is used for quantification.
# Agilent 1100 with DAD (G1315A), quat. Pump (G1311A), autosampler CTC HTS PAL, degasser (G1322A) and column thermostat (G1316A); column: Phenomenex Gemini C18, 5 μm, 50 mm×2 mm; temperature: 40° C.; eluent A: water/phosphoric acid pH 2, eluent B: acetonitrile; flow rate: 0.7 ml/min; gradient: 0-0.5 min 85% A, 15% B; ramp 0.5-3 min 10% A, 90% B; 3-3.5 min 10% A, 90% B; ramp 3.5-4 min 85% A, 15% B; 4-5 min 85% A, 15% B.
# Agilent 1100 with DAD (G1315A), quat. pump (G1311A), autosampler CTC HTS PAL, degasser (G1322A) and column thermostat (G1316A); column: VDSoptilab Kromasil 100 C18, 3.5 μm, 60 mm×2.1 mm; temperature: 30° C.; eluent A: water+5 ml of perchloric acid/liter, eluent B: acetonitrile; flow rate: 0.75 ml/min; gradient: 0-0.5 min 98% A, 2% B; ramp 0.5-4.5 min 10% A, 90% B; 4.5-6 min 10% A, 90% B; ramp 6.5-6.7 min 98% A, 2% B; 6.7-7.5 min 98% A, 2% B.
# [2] = Stability in buffer at various pH values; assay type: physicochemical
# Protocol: 0.3 mg of the test substance is weighed into a 2 ml HPLC vial and 0.5 ml of acetonitrile or acetonitrile/DMSO (9:1) is added. The substance is dissolved by putting the sample vessel in an ultrasonic bath for about 10 seconds. Then 0.5 ml of the respective buffer solution is added, and the sample is again treated in the ultrasonic bath.
# pH 2: 0.03 mol of citric acid, 0.061 mol of sodium chloride and 0.0082 mol of hydrochoric acid ad 1 liter of water;
# pH 4: 1 liter of Millipore water is adjusted to pH 4.0 with 1 N hydrochloric acid;
# pH 5: 0.096 mol of citric acid and 0.2 mol of sodium hydroxide ad 1 liter of water;
# pH 6: 0.06 mol of citric acid and 0.16 mol of sodium hydroxide ad 1 liter of water;
# pH 7.4: 90.0 g of sodium chloride, 13.61 g of potassium dihydrogen phosphate and 83.35 g of 1 N sodium hydroxide solution are made up to 1 liter with water; this solution is then further diluted 1:10 with Millipore water.
# pH 8: 0.013 mol of borax and 0.021 mol of hydrochloric acid ad 1 liter of water.
# 5 μl portions of the test solution are analyzed by HPLC for their content of unchanged test substance, and of active substance (A) formed, every hour over a period of 24 hours at 37° C. The percentage areas of the appropriate peaks are used for quantification.
# The ratios of the peak areas (F) at the respective time points in relation to the peak areas at the starting time are shown in Table 2 for representative exemplary embodiments: […]
# [3] = system: spontaneously hypertensive (SH rats); assay: Blood pressure and heart rate measurements on awake rats; assay type: in vivo, rat; settings: per oral administration of 3 mg/kg
# Protocol: Awake rats which are spontaneously hypertensive (SH rats) and which carry an internal transmitter capable of continual measurement both of blood pressure and also heart rate (telemetric capture of hemodynamic parameters) are administered test substances orally in various doses. Subsequently, blood pressure and heart rate, and their changes, are recorded over 24 hours.
# [4] = Oral pharmacokinetics in Wistar rats; assay type: in vivo; settings: after oral administration
# Protocol: (§1) On the day before administration of the substance, a catheter for obtaining blood is implanted in the jugular vein of the experimental animals (male Wistar rats, body weight 200-250 g) under Isofluran® anesthesia.
# (§2) On the day of the experiment, a defined dose of the test substance is administered as solution into the stomach by gavage. Blood samples (8-12 time points) are taken through the catheter sequentially over the course of 24 h after administration of the substance. Plasma is obtained by centrifuging the samples in heparinized tubes. Acetonitrile is added to a defined plasma volume per time point to precipitate proteins. After centrifugation, test substance and, where appropriate, known cleavage products of the test substance in the supernatant are determined quantitatively using a suitable LC/MS-MS method.
# The measured plasma concentrations are used to calculate pharmacokinetic parameters of the test substance and of the active ingredient compound (A) liberated therefrom, such as AUC, Cmax, T1/2 (half-life).
# [5] = i.v. pharmacokinetics in Wistar rats; assay type: in vivo; settings: after i.v. administration
# Protocol: as §1
# as §2, with “tail vein using a Hamilton® glass syringe (bolus administration, duration of administration <10 s).” for “stomach by gavage.”
# The measured plasma concentrations are used to calculate pharmacokinetic parameters of the test substance and of the active ingredient compound (A) liberated therefrom, such as AUC, Cmax, T1/2 (half-life) and CL (clearance).**
SMILES,solubility thermodynamic at 24 h [1] [µg/mL],"% test substance after 4 h [F(t = 4 h) × 100/F(t = 0 h)] ([2]; pH 4, 37° C.) [%]","% test substance after 24 h [F(t = 24 h) × 100/F(t = 0 h)] ([2]; pH 4, 37° C.) [%]","% test substance after 4 h [F(t = 4 h) × 100/F(t = 0 h)] ([2]; pH 5, 37° C.) [%]","% test substance after 24 h [F(t = 24 h) × 100/F(t = 0 h)] ([2]; pH 5, 37° C.) [%]","% test substance after 4 h [F(t = 4 h) × 100/F(t = 0 h)] ([2]; pH 6, 37° C.) [%]","% test substance after 24 h [F(t = 24 h) × 100/F(t = 0 h)] ([2]; pH 6, 37° C.) [%]","% test substance after 4 h [F(t = 4 h) × 100/F(t = 0 h)] ([2]; pH 7.4, 37° C.) [%]","% test substance after 24 h [F(t = 24 h) × 100/F(t = 0 h)] ([2]; pH 7.4, 37° C.) [%]",solubility at 24 h ([1]; 5% aqueous dextrose solution) [µg/mL],Heart rate reduction (maximum lowering of heart rate) [3] [%],detectability of the test substance in plasma [4],detectability of the test substance in plasma [5]
"CC[C@H](C)[C@H](N)C(=O)N[C@@H](C)C(=O)OC[C@H](COc1ccc(-c2c(C#N)c(N)nc(SCc3coc(-c4ccc(Cl)cc4)n3)c2C#N)cc1)OC(=O)[C@H](C)NC(=O)[C@@H](N)[C@@H](C)CC [Example 2, (2S)-3-{4-[2-Amino-6-({[2-(4-chlorophenyl)-1,3-oxazol-4-yl]methyl}sulfanyl)-3,5-dicyanopyridin-4-yl]phenoxy}propane-1,2-diyl (2S,2′S)-bis(2-{[(2S,3S)-2-amino-3-methylpentanoyl]amino}propanoate)dihydrochloride]",670,100,100,–,–,–,–,100,68,–,–,no longer detectable in plasma even at the first measurement point,–
"N#Cc1c(N)nc(SCc2coc(-c3ccc(Cl)cc3)n2)c(C#N)c1-c1ccc(OC[C@H](O)CO)cc1 [Example 8A, 2-Amino-6-({[2-(4-chlorophenyl)-1,3-oxazol-4-yl]methyl}sulfanyl)-4-(4-{[(2R)-2,3-dihydroxypropyl]oxy}phenyl)pyridine-3,5-dicarbonitrile]",–,–,–,–,–,–,–,–,–,< 1.2,10,–,–
"C[C@H](NC(=O)CN)C(=O)OC[C@H](COc1ccc(-c2c(C#N)c(N)nc(SCc3coc(-c4ccc(Cl)cc4)n3)c2C#N)cc1)OC(=O)[C@H](C)NC(=O)CN [Example 7, (2S)-3-{4-[2-Amino-6-({[2-(4-chlorophenyl)-1,3-oxazol-4-yl]methyl}sulfanyl)-3,5-dicyanopyridin-4-yl]phenoxy}propane-1,2-diyl (2S,2′S)-bis{2-[(aminoacetyl)amino]propanoate}dihydrochloride]",–,100,100,98,83,–,–,0,0,–,–,no longer detectable in plasma even at the first measurement point,–
"C[C@H](NC(=O)[C@@H]1CCCN1)C(=O)OC[C@H](COc1ccc(-c2c(C#N)c(N)nc(SCc3coc(-c4ccc(Cl)cc4)n3)c2C#N)cc1)OC(=O)[C@H](C)NC(=O)[C@@H]1CCCN1 [Example 8, (2S)-3-{4-[2-Amino-6-({[2-(4-chlorophenyl)-1,3-oxazol-4-yl]methyl}sulfanyl)-3,5-dicyanopyridin-4-yl]phenoxy}propane-1,2-diyl (2S,2′S)-bis(2-{[(2S)-pyrrolidin-2-ylcarbonyl]amino}propanoate)bis(trifluoroacetic acid) salt]",–,100,100,–,–,–,–,82,34,–,–,no longer detectable in plasma even at the first measurement point,–

# Further lines, with some results ahead:
solubility thermodynamic at 24 h [1] [µg/mL],"% test substance after 4 h [F(t = 4 h) × 100/F(t = 0 h)] ([2]; pH 4, 37° C.) [%]","% test substance after 24 h [F(t = 24 h) × 100/F(t = 0 h)] ([2]; pH 4, 37° C.) [%]","% test substance after 4 h [F(t = 4 h) × 100/F(t = 0 h)] ([2]; pH 5, 37° C.) [%]","% test substance after 24 h [F(t = 24 h) × 100/F(t = 0 h)] ([2]; pH 5, 37° C.) [%]","% test substance after 4 h [F(t = 4 h) × 100/F(t = 0 h)] ([2]; pH 6, 37° C.) [%]","% test substance after 24 h [F(t = 24 h) × 100/F(t = 0 h)] ([2]; pH 6, 37° C.) [%]","% test substance after 4 h [F(t = 4 h) × 100/F(t = 0 h)] ([2]; pH 7.4, 37° C.) [%]","% test substance after 24 h [F(t = 24 h) × 100/F(t = 0 h)] ([2]; pH 7.4, 37° C.) [%]",solubility at 24 h ([1]; 5% aqueous dextrose solution) [µg/mL],SMILES,Heart rate reduction (maximum lowering of heart rate) [3] [%],detectability of the test substance in plasma [4],detectability of the test substance in plasma [5]
620,100,100,100,97,78,28,29,0,–,"C[C@H](N)C(=O)N[C@@H](C)C(=O)OC[C@H](COc1ccc(-c2c(C#N)c(N)nc(SCc3coc(-c4ccc(Cl)cc4)n3)c2C#N)cc1)OC(=O)[C@H](C)NC(=O)[C@H](C)N [Example 33, (2S)-3-{4-[2-Amino-6-({[2-(4-chlorophenyl)-1,3-oxazol-4-yl]methyl}sulfanyl)-3,5-dicyanopyridin-4-yl]phenoxy}propane-1,2-diyl(2S,2′S)-bis(2-{[(2S)-2-aminopropanoyl]amino}propanoate)dihydrochloride]",10,no longer detectable in plasma even at the first measurement point,no longer detectable in plasma even at the first measurement point
–,100,100,100,100,99,98,96,81,–,"C[C@H](NC(=O)CCN)C(=O)OC[C@H](COc1ccc(-c2c(C#N)c(N)nc(SCc3coc(-c4ccc(Cl)cc4)n3)c2C#N)cc1)OC(=O)[C@H](C)NC(=O)CCN [Example 32, (2S)-3-{4-[2-Amino-6-({[2-(4-chlorophenyl)-1,3-oxazol-4-yl]methyl}sulfanyl)-3,5-dicyanopyridin-4-yl]phenoxy}propane-1,2-diyl (2S,2′S)-bis{2-[(3-aminopropanoyl)amino]propanoate}dihydrochloride]",10,–,no longer detectable in plasma even at the first measurement point
